Reference: the supplement of paper PMC11451515

How the values were obtained:
Details in all cases: 48 h
SEM cells [1] = experiment: AUC of viability dose-response curve (% viability x log10 dose units); higher = less sensitive
Procedure, shortened: (§1)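 Leukemia cells adapted to each medium (500 or 1000 cells/well, 1536-well plates) were exposed to library compounds in DMSO for 48 h at 37°C at 11 threefold doses, 47 μM to 0.79 nM. Luminescence by CellTiter-Glo One was normalised per plate to DMSO and cell-free wells, then fitted with a four-parameter log-logistic curve on log10 dose. Curves above full viability were scaled and quality-control failures removed before area under the curve was integrated by trapezoidal rule.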

P12-Ichikawa [2] = experiment: as above
Procedure, shortened: as §1

NOMO1 [3] = experiment: as above
Procedure, shortened: as §1

SEM cells [4] = experiment: cell viability relative to DMSO control; higher = less cytotoxic
Procedure, shortened: (§2)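 Viability was expressed as a per-plate percentage of DMSO wells, with cell-free wells as background. Leukemia cells (NOMO1 or SEM at 500 cells/well, P12-Ichikawa at 1000 cells/well) were adapted for at least four passages in each medium and seeded in 1536-well plates (5 μl). Library compounds in DMSO were pin-dosed over an 11-point threefold series from 47 μM to 0.79 nM, and CellTiter-Glo One luminescence was read after 48 h at 37°C.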

P12-Ichikawa [5] = experiment: as above
Procedure, shortened: as §2

NOMO1 [6] = experiment: as above
Procedure, shortened: as §2

CCC(=O)OCC(=O)[C@@]1(OC(=O)CC)[C@@H](C)C[C@H]2[C@@H]3CCC4=CC(=O)C=C[C@]4(C)[C@@]3(F)[C@@H](O)C[C@@]21C
AUC of viability dose-response curve
Details | NOMO1 [3] | P12-Ichikawa [2] | SEM cells [1]
HPLM + 10% dialyzed FBS | 360 | 351 | 426
RPMI 5 mM glucose + 10% FBS | 408 | 335 | 390
RPMI 5 mM glucose + 10% dialyzed FBS | 391 | 317 | 372

cell viability [%]
Details | NOMO1 [6] | P12-Ichikawa [5] | SEM cells [4]
HPLM + 10% dialyzed FBS, 0.000781 µM | 117 | 107 | 78.1
HPLM + 10% dialyzed FBS, 0.00234 µM | 130 | 110 | 99.1
HPLM + 10% dialyzed FBS, 0.00702 µM | 111 | 111 | 93.2
HPLM + 10% dialyzed FBS, 0.0211 µM | 109 | 107 | 98.5
HPLM + 10% dialyzed FBS, 0.0632 µM | 115 | 111 | 100
HPLM + 10% dialyzed FBS, 0.19 µM | 97.4 | 96.4 | 102
HPLM + 10% dialyzed FBS, 0.569 µM | 106 | 80.1 | 84.2
HPLM + 10% dialyzed FBS, 1.71 µM | 62.7 | 65.9 | 90.7
HPLM + 10% dialyzed FBS, 5.12 µM | 43.5 | 64.3 | 91.8
HPLM + 10% dialyzed FBS, 15.4 µM | 28.3 | 12.3 | 70.2
HPLM + 10% dialyzed FBS, 46.1 µM | 25.4 | 6.01 | 61.2
RPMI 5 mM glucose + 10% FBS, 0.000781 µM | 99.3 | 106 | 104
RPMI 5 mM glucose + 10% FBS, 0.00234 µM | 98.8 | 111 | 114
RPMI 5 mM glucose + 10% FBS, 0.00702 µM | 107 | 121 | 116
RPMI 5 mM glucose + 10% FBS, 0.0211 µM | 112 | 108 | 114
RPMI 5 mM glucose + 10% FBS, 0.0632 µM | 112 | 102 | 116
RPMI 5 mM glucose + 10% FBS, 0.19 µM | 105 | 89.9 | 95.6
RPMI 5 mM glucose + 10% FBS, 0.569 µM | 116 | 73.4 | 87.3
RPMI 5 mM glucose + 10% FBS, 1.71 µM | 95 | 68.6 | 71.5
RPMI 5 mM glucose + 10% FBS, 5.12 µM | 84.5 | 56 | 79.4
RPMI 5 mM glucose + 10% FBS, 15.4 µM | 16.9 | 6.2 | 69.9
RPMI 5 mM glucose + 10% FBS, 46.1 µM | 18.8 | 6.14 | 50.3
RPMI 5 mM glucose + 10% dialyzed FBS, 0.000781 µM | 110 | 101 | 116
RPMI 5 mM glucose + 10% dialyzed FBS, 0.00234 µM | 112 | 111 | 115
RPMI 5 mM glucose + 10% dialyzed FBS, 0.00702 µM | 117 | 107 | 126
RPMI 5 mM glucose + 10% dialyzed FBS, 0.0211 µM | 115 | 94.8 | 112
RPMI 5 mM glucose + 10% dialyzed FBS, 0.0632 µM | 118 | 90.3 | 115
RPMI 5 mM glucose + 10% dialyzed FBS, 0.19 µM | 136 | 76.2 | 88.5
RPMI 5 mM glucose + 10% dialyzed FBS, 0.569 µM | 108 | 67.6 | 92.6
RPMI 5 mM glucose + 10% dialyzed FBS, 1.71 µM | 79.1 | 54.6 | 75.3
RPMI 5 mM glucose + 10% dialyzed FBS, 5.12 µM | 84.3 | 52.2 | 69.7
RPMI 5 mM glucose + 10% dialyzed FBS, 15.4 µM | 26.4 | 5.68 | 65.9
RPMI 5 mM glucose + 10% dialyzed FBS, 46.1 µM | 23.9 | 4.77 | 48.8

CCOc1ccc(Nc2nc(-c3c(C)nc4ccccn34)cs2)cc1
AUC of viability dose-response curve
Details | NOMO1 [3] | P12-Ichikawa [2] | SEM cells [1]
HPLM + 10% dialyzed FBS | 270 | 225 | 232
RPMI 5 mM glucose + 10% FBS | 252 | 232 | 213
RPMI 5 mM glucose + 10% dialyzed FBS | 281 | 271 | 263

cell viability [%]
Details | NOMO1 [6] | P12-Ichikawa [5] | SEM cells [4]
HPLM + 10% dialyzed FBS, 0.000781 µM | 109 | 117 | 98.8
HPLM + 10% dialyzed FBS, 0.00234 µM | 118 | 116 | 105
HPLM + 10% dialyzed FBS, 0.00702 µM | 119 | 116 | 111
HPLM + 10% dialyzed FBS, 0.0211 µM | 111 | 103 | 89.9
HPLM + 10% dialyzed FBS, 0.0632 µM | 40 | 53.8 | 38.5
HPLM + 10% dialyzed FBS, 0.19 µM | 35.7 | 19.3 | 22.3
HPLM + 10% dialyzed FBS, 0.569 µM | 33.4 | 26.3 | 20.4
HPLM + 10% dialyzed FBS, 1.71 µM | 38.7 | 24.1 | 21.1
HPLM + 10% dialyzed FBS, 5.12 µM | 38.8 | 16.3 | 20.1
HPLM + 10% dialyzed FBS, 15.4 µM | 45.7 | 14.5 | 23.5
HPLM + 10% dialyzed FBS, 46.1 µM | 40.4 | 9.9 | 22.9
RPMI 5 mM glucose + 10% FBS, 0.000781 µM | – | 116 | 114
RPMI 5 mM glucose + 10% FBS, 0.00234 µM | – | 121 | 107
RPMI 5 mM glucose + 10% FBS, 0.00702 µM | – | 129 | 112
RPMI 5 mM glucose + 10% FBS, 0.0211 µM | – | 109 | 94.8
RPMI 5 mM glucose + 10% FBS, 0.0632 µM | – | 72.8 | 46.8
RPMI 5 mM glucose + 10% FBS, 0.19 µM | – | 16.7 | 14.5
RPMI 5 mM glucose + 10% FBS, 0.569 µM | – | 19.6 | 15.6
RPMI 5 mM glucose + 10% FBS, 1.71 µM | – | 19.6 | 13.3
RPMI 5 mM glucose + 10% FBS, 5.12 µM | – | 22.3 | 15.7
RPMI 5 mM glucose + 10% FBS, 15.4 µM | – | 17.5 | 14.3
RPMI 5 mM glucose + 10% FBS, 46.1 µM | – | 9.84 | 10.9
RPMI 5 mM glucose + 10% dialyzed FBS, 0.000781 µM | 119 | 104 | 116
RPMI 5 mM glucose + 10% dialyzed FBS, 0.00234 µM | 117 | 116 | 94.7
RPMI 5 mM glucose + 10% dialyzed FBS, 0.00702 µM | 128 | 110 | 96.5
RPMI 5 mM glucose + 10% dialyzed FBS, 0.0211 µM | 120 | 108 | 110
RPMI 5 mM glucose + 10% dialyzed FBS, 0.0632 µM | 112 | 94.2 | 91.1
RPMI 5 mM glucose + 10% dialyzed FBS, 0.19 µM | 33.2 | 28.9 | 26.8
RPMI 5 mM glucose + 10% dialyzed FBS, 0.569 µM | 31.4 | 29.6 | 24.3
RPMI 5 mM glucose + 10% dialyzed FBS, 1.71 µM | 30.2 | 30.3 | 20.7
RPMI 5 mM glucose + 10% dialyzed FBS, 5.12 µM | 31.4 | 27.3 | 19.1
RPMI 5 mM glucose + 10% dialyzed FBS, 15.4 µM | 35.9 | 28.1 | 19.7
RPMI 5 mM glucose + 10% dialyzed FBS, 46.1 µM | 32.1 | 14.8 | 18.8
